Values of other authors, collected in patent US20170326139A1, “COMBINATION THERAPY FOR MALE SEXUAL DYSFUNCTION” (priority 2016, published 2017).
Like-named read-outs stand apart in the source and are kept apart here.

How the values were obtained:
[1] = system: premature ejaculation
[2] = system: premature ejaculation; details: in vivo
[3] = system: premature ejaculation; remark: listed apart in the source

CCCc1nn(C)c2c(=O)[nH]c(-c3cc(S(=O)(=O)N4CCN(C)CC4)ccc3OCC)nc12 [sildenafil]
effect on PE versus placebo ([1]; sildenafil 50 mg pre-coitus administered alone): no better than placebo | IELT ([1]; sildenafil 50 mg pre-coitus combined with behavioral psychotherapy): about 3.63 minutes

CNCC[C@H](Oc1cccc2ccccc12)c1cccs1 [duloxetine]
effect on IELT [2]: some positive effect on IELT

CN(C)CCCN1c2ccccc2CCc2ccc(Cl)cc21 [clomipramine]
effect in treating PE ([3]; inhaled (nasal) 4 mg or 5 mg on-demand, e.g. one hour pre-coitus): effective in treating PE | effect on IELT ([3]; orally administered daily at 10 to 50 mg per day): effectively increase IELT
